In patent publication US9492424B2, “Muscle atrophy inhibitor” (MORINAGA MILK INDUSTRY CO., LTD., priority 2011, dated 2016):

What was measured:
atrogin-1 gene = assay: expression amount of atrogin-1 gene in tibialis anterior muscle by real time PCR; type: in vivo, rat; settings: Example 3
Excerpt: (§1) The tibialis anterior muscles collected in Example 1 mentioned above were used to evaluate expression amounts of genes that participate in muscle atrophy.
(§2) The tibialis anterior muscle was frozen in liquid nitrogen immediately after the collection, and homogenized in Trizol Reagent (Invitrogen), and the total RNA was extracted by using RNeasy Mini Kit (QIAGEN). cDNA was obtained by the total RNA by using High Capacity cDNA Reverse Kit (ABI). The cDNA, primers for amplifying each of the atrogin-1, MuRF1, and myostatin genes (ABI), and Taqman Fast Universal PCR Master Mix (ABI) were mixed, and expression amount of each gene in the test sample was relatively quantified by the real time PCR method, with taking the gene expression amount in the DEX group as 1. In statistical analysis, it was determined whether there were statistically significant differences between the values obtained for the DEX group and the values obtained for the other groups according to the Dunnett test.
(§3) In Examples 1 and 2, 1 mass % of the extract of Citrus depressa was added to the feed, and fed. […]

MuRF1 gene = assay: expression amount of MuRF1 gene in tibialis anterior muscle by real time PCR; type: in vivo, rat; settings: Example 3
Excerpt: as §1, §2, §3

Row | Structure (SMILES) | expression amount of the atrogin-1 gene relative to DEX group taken as 1.0 (atrogin-1 gene; eight-month old SD rats, 0.0007 mass % in feed for two weeks, dexamethasone) | ingestion amount with which the effect can be expected (atrogin-1 gene; from feed intake and body weight of the NOB group, 19 days ingestion) | expression amount of the MuRF1 gene relative to DEX group taken as 1.0 (MuRF1 gene; eight-month old SD rats, 0.0004 mass % in feed for two weeks, dexamethasone) | ingestion amount with which the effect can be expected (MuRF1 gene; from feed intake and body weight of the TAN group, 19 days ingestion)
1 | COc1ccc(-c2cc(=O)c3c(OC)c(OC)c(OC)c(OC)c3o2)cc1OC [NOB, nobiletin] | 0.85±0.29 | about 0.2 mg/kg/day |  | 
2 | COc1ccc(-c2cc(=O)c3c(OC)c(OC)c(OC)c(OC)c3o2)cc1 [TAN, tangeretin] |  |  | 0.77±0.35 | about 0.1 mg/kg/day
